Test results: patent publication US9497963B2, “Methods and compositions for control of gypsy moth, Lymantria dispar” (Simon Fraser University, priority 2008, dated 2016)

How the values were obtained:
Set-up in all cases: species or system Lymantria dispar
L. dispar PBP 1 = test: Pheromone-binding protein (PBP) ligand binding assay, PBP1; conditions: tested as single compound; means ± S.E., 4 replicates
Procedure: (§1) A. The protein and ligand are incubated in buffer overnight. B. For half of the incubation mixture, the free ligand (L) is separated from the protein-bound ligand (P.L) by size-exclusion chromatography on P2 Gel (BioRad, exclusion limit 2000 Da). The protein elutes from the small column bed, with its ligand bound (see Examples and […] et al. 2000; Staddon and Everton 1980), while the free ligand is retained on the column ([…] et al. 2000). C. […] The extract from the filtrate (B) contains the protein-bound ligand and the extract from the incubation mixture (A) contains all the ligand (bound and free) present in the aqueous phase. The extracts are analyzed by GC-MS, to obtain values for total ligand in solution (L+P.L) and for protein-bound ligand (P.L). These can then be used to calculate % bound (Table 3). These assays were performed as described in FIG. 3 and as follows: L. dispar PBP 1 or PBP 2 was incubated with the test compound or mini-library. The PBP and the ligand(s) (L) were left to equilibrate (eq 2) overnight. The non-bound ligand was then separated from the protein-bound material (PBP.L) by size-exclusion chromatography. By determining the total ligand in solution at equilibrium (eq. 3) and the protein-bound ligand, it is possible to estimate the percentage of ligand bound to the protein at equilibrium (eq. 4). […] This binding assay has been validated extensively in previous studies ([…] et al. 2000). The components of each mini-library separated cleanly by GC, so it was possible to monitor binding of individual components. PBP+L⇄PBP·L (eq. 2) [L]tot=[L]+[PBP·L] (eq. 3) % bound=100×[PBP·L]/[L]tot (eq. 4) Results: The members of each mini-library separated cleanly by GC, therefore it was possible to monitor binding of individual members to PBP1 or PBP2, the two known PBPs in the gypsy moth, by extraction from the aqueous incubation mixture, followed by GC analysis of the extract (FIG. 3).

L. dispar PBP 2 = test: Pheromone-binding protein (PBP) ligand binding assay, PBP2; conditions: tested as single compound; means ± S.E., 4 replicates
Procedure: as §1

[1] = test system: male gypsy moth antenna response to pheromone (+)-1; test: Decay of the long-term inhibitory effect and dose responses, EAG (Example 6); conditions: 100 ng; maximal value, on average
Procedure: LTI dependence on the delay time of the pure (+)-1 puffs (v-vii, Example 6) after the mixed (+)-1/inhibitor puff. The amount of (+)-1 was varied from 10 ng to 1 μg and the amount of inhibitor was constant at 100 μg. FIG. 7B. Dose response of LTI with respect to variable (+)-1 responses and time responses for the strongest long-term inhibition of EAG responses towards (+)-1. FIG. 7C. Dose response of pure pheromone (+)-1. FIG. 7D.
This recovery usually took 5-7 s. The short-term inhibition STI(compound, dose) was calculated for each mixed plume. The long-term inhibition LTI(dose, time) was calculated for each dose and for each of the three puffs following the mixed pheromone-inhibitor plume.

PBP1 (% bound) (L. dispar PBP 1): 54 ± 16%
PBP2 (% bound) (L. dispar PBP 2): 71 ± 23%
SMILES: CCCCCCCCCC[C@@H]1O[C@@H]1CCCCC(C)C (relative stereo) [(+)-disparlure, cis-(7R,8S)-7,8-epoxy-2-methyloctadecane, reference compound]
depolarization with pure pheromone [1]: 20 mV
